Assay results: ChEMBL document CHEMBL5247657 (J Med Chem, 2023)

Columns and labels:
in vivo [1] = conditions: Sprague-Dawley, rat, po, 5 mg/kg
[2] = Half-life in Sprague-Dawley rat at 1 mg/kg, iv measured upto 24 hrs by LC-MS/MS analysis; format: ADME, organism-based; conditions: in vivo
[3] = Tmax in Beagle dog at […], po measured upto 24 hrs by LC-MS/MS analysis; format: ADME, organism-based, Canis lupus familiaris; conditions: in vivo, dose 2.5 mg/kg
in vivo [4] = conditions: Beagle, dog, iv, 1 mg/kg
[5] = Volume of distribution at steady state in Sprague-Dawley rat at 1 mg/kg, iv measured upto 24 hrs by LC-MS/MS analysis; format: ADME, organism-based; conditions: in vivo, read-out: Vdss
[6] = Volume of distribution at steady state in Beagle dog at 1 mg/kg, iv measured upto 24 hrs by LC-MS/MS analysis; format: ADME, organism-based, Canis lupus familiaris; conditions: in vivo, read-out: Vdss
[7] = Tmax in Sprague-Dawley rat at 5 mg/kg, po measured upto 24 hrs by LC-MS/MS analysis; format: ADME, organism-based; conditions: in vivo
in vivo [8] = conditions: Beagle, dog, po
[9] = Half-life in Beagle dog at 1 mg/kg, iv measured upto 24 hrs by LC-MS/MS analysis; format: ADME, organism-based, Canis lupus familiaris; conditions: in vivo
in vivo [10] = conditions: Beagle, dog, po; remark: listed apart in the source
in vivo [11] = conditions: Beagle, dog, po; remark: listed apart in the source

Compound `C=CC(=O)N1CCC([C@@H]2CCNc3c(C(N)=O)c(-c4cc(OC)c(C)c(OC)c4)nn32)CC1` has an AUC(0-inf) at 24 h (in vivo [1]) of 964 ng·h/mL, a half-life [2] of 36 min and a Tmax at 24 h [3] of 25.2 min. The clearance at 24 h (in vivo [4]) was 6.89 mL/min/kg, the Vd [5] was 0.9 L/kg and the Vd [6] was 0.74 L/kg. For the same compound, the Tmax [7] was 15 min, the Cmax at 24 h (in vivo [8]) was 1250 ng/mL and the half-life [9] was 150 min. For the same compound, the bioavailability at 24 h (in vivo [10]) was 43% and the AUC(0-inf) at 24 h (in vivo [11]) was 2640 ng·h/mL.
